This is an account of results in patent US20240239775A1, “FXR REGULATOR, PREPARATION METHOD THEREFOR, PHARMACEUTICAL COMPOSITION THEREOF AND USE THEREOF” (QINGDAO RUIJI MEDICAL TECHNOLOGY CO., LTD., priority 2021, published 2024).

In the first experiment the target is T1, FXR (Homo sapiens, UniProt Q96RI1).
T1 construct: 5 μL of 20 nM FXR-LBD Complete Coregulator buffer G; purchased ThermoFisher PV4833
T1 sequence (Q96RI1 262-486 limits assumed): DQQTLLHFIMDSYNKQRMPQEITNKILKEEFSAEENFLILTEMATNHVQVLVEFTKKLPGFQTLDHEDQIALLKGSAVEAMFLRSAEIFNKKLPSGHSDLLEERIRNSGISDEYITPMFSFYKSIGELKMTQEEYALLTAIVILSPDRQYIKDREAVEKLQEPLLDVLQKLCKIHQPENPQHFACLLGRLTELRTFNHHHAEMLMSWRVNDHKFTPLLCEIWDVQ
Kind of experiment: FXR antagonist screening by TR-FRET (LanthaScreen TR-FRET FXR co-activation assay kit). It is filed as biochemical. As to conditions: Table 1.1, FXR antagonistic activity; TR-FRET with CDCA; geometric means of at least two independent runs. In short, it runs like this: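 FXR-LBD (20 nM working solution) mixed with compound, CDCA (200 μM working solution) as agonist, Fluorescein-SRC2-2 and Tb-anti-GST antibody in Coregulator buffer G; 10 h at room temperature. Coactivator recruitment read by TR-FRET, triplicate wells.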
`CCOC(=O)c1oc2ccc(S(=O)(=O)N(CCc3ccccc3)Cc3ccccc3F)cc2c1C` [Example M4-14, ethyl 3-methyl-5-(N-(2-fluorobenzyl)-N-phenethylsulfamoyl)benzofuran-2-carboxylate]: the IC50 was 50 to 100 µM.
Same read-out and setting: the result for `CCOC(=O)c1oc2ccc(S(=O)(=O)N(CCc3ccccc3)Cc3ccccc3Cl)cc2c1C` [Example M4-15, ethyl 3-methyl-5-(N-(2-chlorobenzyl)-N-phenethylsulfamoyl)benzofuran-2-carboxylate] reads 50 to 100 µM; that for `CCOC(=O)c1oc2ccc(S(=O)(=O)N(CCc3ccccc3)Cc3ccccc3Br)cc2c1C` [Example M4-16, ethyl 3-methyl-5-(N-(2-bromobenzyl)-N-phenethylsulfamoyl)benzofuran-2-carboxylate], 50 to 100 µM; that for `CCOC(=O)c1oc2ccc(S(=O)(=O)N(CCc3ccccc3)Cc3ccccc3C)cc2c1C` [Example M4-17, ethyl 3-methyl-5-(N-(2-methylbenzyl)-N-phenethylsulfamoyl)benzofuran-2-carboxylate], 50 to 100 µM.
On the same count and under the same terms, as for `CCOC(=O)c1oc2ccc(S(=O)(=O)N(CCc3ccccc3)Cc3ccccc3C(F)(F)F)cc2c1C` [Example M4-18, ethyl 3-methyl-5-(N-(2-trifluoromethylbenzyl)-N-phenethylsulfamoyl)benzofuran-2-carboxylate], the figure is 50 to 100 µM; as for `CCOC(=O)c1oc2ccc(S(=O)(=O)N(CCc3ccccc3)Cc3ccccc3[N+](=O)[O-])cc2c1C` [Example M4-19, ethyl 3-methyl-5-(N-(2-nitrobenzyl)-N-phenethylsulfamoyl)benzofuran-2-carboxylate], 50 to 100 µM.
As for `CCOC(=O)c1oc2ccc(S(=O)(=O)N(CCc3ccccc3)Cc3cccc(F)c3)cc2c1C` [Example M4-20, ethyl 3-methyl-5-(N-(3-fluorobenzyl)-N-phenethylsulfamoyl)benzofuran-2-carboxylate], the half-maximal inhibitory concentration (IC50) lay in the range of 50 to 100 µM.
The same measure, in the same setting: the result for `CCOC(=O)c1oc2ccc(S(=O)(=O)N(CCc3ccccc3)Cc3cccc(Cl)c3)cc2c1C` [Example M4-21, ethyl 3-methyl-5-(N-(3-chlorobenzyl)-N-phenethylsulfamoyl)benzofuran-2-carboxylate] reads 50 to 100 µM.
Same read-out and setting: as for `CCOC(=O)c1oc2ccc(S(=O)(=O)N(CCc3ccccc3)Cc3cccc(Br)c3)cc2c1C` [Example M4-22, ethyl 3-methyl-5-(N-(3-bromobenzyl)-N-phenethylsulfamoyl)benzofuran-2-carboxylate], the figure is 50 to 100 µM; as for `CCOC(=O)c1oc2ccc(S(=O)(=O)N(CCc3ccccc3)Cc3cccc(C)c3)cc2c1C` [Example M4-23, ethyl 3-methyl-5-(N-(3-methylbenzyl)-N-phenethylsulfamoyl)benzofuran-2-carboxylate], 50 to 100 µM; as for `CCOC(=O)c1oc2ccc(S(=O)(=O)N(CCc3ccccc3)Cc3cccc(C(F)(F)F)c3)cc2c1C` [Example M4-24, ethyl 3-methyl-5-(N-(3-trifluoromethylbenzyl)-N-phenethylsulfamoyl)benzofuran-2-carboxylate], 50 to 100 µM.
Still for that read-out and setting: as for `CCOC(=O)c1oc2ccc(S(=O)(=O)N(CCc3ccccc3)Cc3cccc([N+](=O)[O-])c3)cc2c1C` [Example M4-25, ethyl 3-methyl-5-(N-(3-nitrobenzyl)-N-phenethylsulfamoyl)benzofuran-2-carboxylate], the figure is 50 to 100 µM.
The compound `CCOC(=O)c1oc2ccc(S(=O)(=O)N(CCc3ccccc3)Cc3cccc(-c4ccccc4)c3)cc2c1C` [Example M4-26, ethyl 3-methyl-5-(N-([1,1′-biphenyl]-3-ylmethyl)-N-phenethylsulfamoyl)benzofuran-2-carboxylate] displayed an IC50 of 50 to 100 µM.
Still for that read-out and setting: the result for `CCOC(=O)c1oc2ccc(S(=O)(=O)N(CCc3ccccc3)Cc3cccc(Oc4ccccc4)c3)cc2c1C` [Example M4-27] reads 50 to 100 µM.
With `CCOC(=O)c1oc2ccc(S(=O)(=O)N(CCc3ccccc3)Cc3ccc(F)cc3)cc2c1C` [Example M4-28, ethyl 3-methyl-5-(N-(4-fluorobenzyl)-N-phenethylsulfamoyl)benzofuran-2-carboxylate], the half-inhibitory concentration (IC50) fell in the range of 50 to 100 µM.
Compound `CCOC(=O)c1oc2ccc(S(=O)(=O)N(CCc3ccccc3)Cc3ccc(Cl)cc3)cc2c1C` [Example M4-29, ethyl 3-methyl-5-(N-(4-chlorobenzyl)-N-phenethylsulfamoyl)benzofuran-2-carboxylate] had a concentration for half-maximal inhibition (IC50) of 50 to 100 µM.
The same measure, in the same setting: the result for `CCOC(=O)c1oc2ccc(S(=O)(=O)N(CCc3ccccc3)Cc3ccc(Br)cc3)cc2c1C` [Example M4-30, ethyl 3-methyl-5-(N-(4-bromobenzyl)-N-phenethylsulfamoyl)benzofuran-2-carboxylate] reads 50 to 100 µM.

Staying with this experiment, now noted: Table 1.2, FXR antagonistic activity; TR-FRET with CDCA; geometric means of at least two independent runs.
`Cc1c(C(=O)O)sc2ccc(S(=O)(=O)N(CCc3cccc(Cl)c3)c3ccccc3N3CCN(C(=O)c4sccc4Br)CC3)cc12` [Example F27-S172, 5-(N-(2-(4-(3-bromothiophene-2-carbonyl)piperazin-1-yl)phenyl)-N-(3-chlorophenethyl)sulfamoyl)-3-methylbenzothiophene-2-carboxylic acid] displayed a concentration for half-maximal inhibition (IC50) of 0.1 to 10 µM.
Still for that read-out and setting: the result for `Cc1c(C(=O)O)sc2ccc(S(=O)(=O)N(CCc3ccccc3Cl)c3ccccc3N3CCN(C(=O)c4sccc4Br)CC3)cc12` [Example F27-S173, 5-(N-(2-(4-(3-bromothiophene-2-carbonyl)piperazin-1-yl)phenyl)-N-(2-chlorophenethyl)sulfamoyl)-3-methylbenzothiophene-2-carboxylic acid] reads 0.1 to 10 µM; that for `COc1ccccc1CCN(c1ccccc1N1CCN(C(=O)c2sccc2Br)CC1)S(=O)(=O)c1ccc2sc(C(=O)O)c(C)c2c1` [Example F27-S174, 5-(N-(2-(4-(3-bromothiophene-2-carbonyl)piperazin-1-yl)phenyl)-N-(2-methoxyphenethyl)sulfamoyl)-3-methylbenzothiophene-2-carboxylic acid], 0.1 to 10 µM; that for `Cc1c(C(=O)O)sc2ccc(S(=O)(=O)N(CCc3ccccc3[N+](=O)[O-])c3ccccc3N3CCN(C(=O)c4sccc4Br)CC3)cc12` [Example F27-S175, 5-(N-(2-(4-(3-bromothiophene-2-carbonyl)piperazin-1-yl)phenyl)-N-(2-nitrophenylethyl)sulfamoyl)-3-toluothiophene-2-carboxylic acid], 0.1 to 10 µM.
Compound `Cc1c(C(=O)O)sc2ccc(S(=O)(=O)N(CCCc3ccccc3)c3ccccc3N3CCN(C(=O)c4sccc4Br)CC3)cc12` [Example F27-S176, 5-(N-(2-(4-(3-bromothiophene-2-carbonyl)piperazin-1-yl)phenyl)-N-(3-phenylpropyl)sulfamoyl)-3-methylbenzothiophene-2-carboxylic acid] gave a half-inhibitory concentration (IC50) of 0.1 to 10 µM.
On the same count and under the same terms, the result for `Cc1c(C(=O)O)sc2ccc(S(=O)(=O)Nc3ccccc3N3CCN(C(=O)c4sccc4Br)CC3)cc12` [Example F27-S177, 5-(N-(2-(4-(3-bromothiophene-2-carbonyl)piperazin-1-yl)phenyl)sulfamoyl)-3-toluothiophene-2-carboxylic acid] reads 0.1 to 10 µM.
Take `Cc1c(C(N)=O)oc2ccc(S(=O)(=O)N(CCc3ccccc3)c3ccccc3N3CCN(C(=O)c4sccc4Br)CC3)cc12` [Example F27-S178, 5-(N-(2-(4-(3-bromothiophene-2-formyl)piperazin-1-yl)phenyl)-N-phenethylsulfamoyl)3-methylbenzofuran-2-carboxamide]: the IC50 fell in the range of 0.1 to 10 µM.
The compound `Cc1c(C(=O)O)n(C)c2ccc(S(=O)(=O)N(CCc3ccccc3)c3ccccc3N3CCN(C(=O)c4sccc4Br)CC3)cc12` [Example F27-S179, 5-(N-(2-(4-(3-bromothiophene-2-carbonyl)piperazin-1-yl)phenyl)-N-phenethylsulfamoyl)-1,3-dimethyl-1H-indole-2-carboxylic acid] displayed an IC50 of 0.1 to 10 µM.
Same read-out and setting: the result for `Cc1c(C(=O)O)sc2ccc(S(=O)(=O)N(CCC3CCCCC3)c3ccccc3N3CCN(C(=O)c4sccc4Br)CC3)cc12` [Example F27-S180, 5-(N-(2-(4-(3-bromothiophene-2-carbonyl)piperazin-1-yl)phenyl)-N-(2-cyclohexylethyl)sulfamoyl)-3-methylbenzothiophene-2-carboxylic acid] reads 0.1 to 10 µM; that for `Cc1c(C(=O)O)sc2ccc(S(=O)(=O)N(Cc3ccccc3)c3ccccc3N3CCN(C(=O)c4sccc4Br)CC3)cc12` [Example F27-S181, 5-(N-benzyl-N-(2-(4-(3-bromothiophene-2-carbonyl)piperazin-1-yl)phenyl)sulfamoyl)-3-methylbenzothiophene-2-carboxylic acid], 0.1 to 10 µM.
Same read-out and setting: the result for `Cc1c(C(=O)O)sc2ccc(S(=O)(=O)N(C)c3ccccc3N3CCN(C(=O)c4sccc4Br)CC3)cc12` [Example F27-S182, 5-(N-(2-(4-(3-bromothiophene-2-carbonyl)piperazin-1-yl)phenyl)-N-methylsulfamoyl)-3-methylbenzothiophene-2-carboxylic acid] reads 0.1 to 10 µM.
Compound `Cc1c(C(=O)O)sc2ccc(S(=O)(=O)N(CCc3cccs3)c3ccccc3N3CCN(C(=O)c4sccc4Br)CC3)cc12` [Example F27-S183, 5-(N-(2-(4-(3-bromothiophene-2-carbonyl)piperazin-1-yl)phenyl)-N-(2-(thiophen-2-yl)ethyl)sulfamoyl)-3-methylbenzothiophene-2-carboxylic acid] had an IC50 of 0.1 to 10 µM.
`Cc1c(CO)oc2ccc(S(=O)(=O)N(CCc3ccccc3)c3ccccc3N3CCN(C(=O)c4sccc4Br)CC3)cc12` [Example F27-S184, N-(2-(4-(3-bromothiophene-2-formyl)piperazin-1-yl)phenyl)-2-hydroxymethyl-3-methyl-N-phenethylbenzofuran-5-sulfonamide] showed an IC50 of 0.1 to 10 µM.
